Like-named read-outs stand apart in the source and are kept apart here.
Key:
Kupffer cells [1] = test: Zymosan-induced respiratory burst (ROS) in Kupffer cells, luminol- or lucigenin-enhanced chemiluminescence
Source text: Liver cell isolation. Liver cells were isolated from female Sprague Dawley rats (230-250 g). Livers were perfused with collagenase as described by Neufeld (Neufeld DS (1997) Isolation of rat liver hepatocytes. Methods in Molecular Biology, Vol 75: Basic Cell Culture Protocols 75: 145-151). Subsequently, liver cells were purified by a combined differential and Percoll gradient centrifugation using a Sorvall HS4 swinging bucket rotor (Smedsrod B, Pertoft H (1985) Preparation of pure hepatocytes and reticuloendothelial cells in high yield from a single rat liver by means of Percoll centrifugation and selective adherence. J.Leukocyte Biol 38: 213-230). After filtration through a 100-μm mesh polypropylene filter (Spectra/Mesh; Spectrum, Laguna Hills, Calif.), the cell suspension was centrifuged for 5 minutes at 50 g resulting in a hepatocyte-enriched pellet and a nonparenchymal cell-enriched supernatant. The nonparenchymal cell-containing supernatant was saved. The pellet was resuspended in ice-cold phosphate-buffered saline (PBS) and mixed in an equal volume of PBS-buffered isotonic Percoll. The gradient was centrifuged for 10 minutes at 50 g. The pellet was resuspended in PBS, centrifuged again, and the final pellet was resuspended in RPMI 1640 medium containing 10% FCS. The nonparenchymal cell-enriched supernatants were centrifuged for 15 minutes at 900 g. The pellet was resuspended in ice-cold PBS, layered over a 2-cushion Percoll gradient (Smedsrod B, Pertoft H (1985) Preparation of pure hepatocytes and reticuloendothelial cells in high yield from a single rat liver by means of Percoll centrifugation and selective adherence. J.Leukocyte Biol 38: 213-230) and centrifuged for 30 minutes at 900 g. The intermediate zone, containing mostly liver endothelial cells, and the bottom cushion, containing mostly Kupffer cells, were saved, mixed with PBS, and centrifuged for 15 minutes at 900 g. The pellet was resuspended in PBS with 1% FCS and the cells further separated into various fractions by centrifugal counterflow elutriation (Knook D L, Sleyster E C (1976) Separation of Kupffer and endothelial cells of the rat liver by centrifugal elutriation. Exp Cell Res 99: 444-449) using the Beckman Coulter JE-5.0 elutriator rotor supplied with a Sanderson chamber (Beckman Coulter, Palo Alto, Calif. USA). The cell suspension was introduced into the elutriator at a flow rate of 12 ml/min, and the elutriator speed set to 3250 rpm. Endothelial cells were obtained at a 32 ml/min flow rate, whereas Kupffer cells were collected at 70 ml/min. The cells were centrifuged at 200 g and resuspended in RPMI-1640 medium containing 10% fetal calf serum. The cell purity and viability were above 95% as determined by peroxidase stain and trypan blue exclusion.
Cell culture. Kupffer cells were seeded into 96-well microtiter plates (0.25×10^6 cells/well) or 24-well plates (1.0×10^6 cells/well). Endothelial cells were plated on 24-well plates (1.5×10^6 cells/well), which had been previously coated with type I collagen (Sigma, St. Louis, Mo.). […] All types of cells were cultivated in RPMI 1640 medium supplemented with 10% fetal calf serum (FCS), 25 mM HEPES, and antibiotics (100 U/ml penicillin G and 100 μg/ml streptomycin sulfate) at 37° C. in 5% CO2. Nonadherent cells were removed after 1 h by replacing medium, and the cells were cultured in the same medium for 18 h and then in RPMI-1640 without FCS for 6 h.
Cell treatment. To study the effect of CSP on cell signaling, the cells were incubated with different concentration of CSP for 0-90 min at 37° C. in 5% CO2. Before use, CSP was dialyzed extensively with 150 mM NaCl, 10 mM HEPES, pH 7.4 and diluted in culture medium.

Kupffer cells [2] = test: cAMP radioimmunoassay, intracellular cAMP in Kupffer cells; assay type: cell-based, rat
Procedure: Liver cell isolation. […] The nonparenchymal cell-containing supernatant was saved.
Cell culture. […] HepG2 cells were used on day 3 after plating.
Cell treatment. […] Role of calcium and cyclic AMP. […] J Immunol 174: 2981-2989). […] IBMX was dissolved in dimethyl sulphoxide (DMSO).
cAMP radioimmunoassay. For cAMP determination, liver cell cultures were incubated in culture medium without FCS at 37° C. for 0-90 min. The cultures were then placed on ice, and the reaction was stopped by aspiration of the incubation medium followed by the addition of 1 ml of ice cold 65% (vol/vol) ethanol. The cells were scraped into Eppendorf tubes and centrifuged at 10000 g for 10 min at 4° C. The supernatants were dried in SC110 Speedvac Concentrator (Savant, Farmingdale, N.Y.) at room temperature, and the dried extracts were dissolved in assay buffer for cAMP determination with cAMP [^125I] Direct Biotrak Assay from Amersham Biosciences (Piscataway, N.J.), according to the instructions of the manufacturer. Samples were analyzed with a Beckman LS 6000 scintillation counter. The cAMP level in each sample was normalized to the protein concentration and expressed as fmol/μg of protein. Ethanol-precipitated cell pellets were diluted with 0.15 M NaOH and the protein concentration was measured with the Micro BCA Protein Assay Kit (Pierce Chemical Co., Rockford, Ill.) according to manufacturer's instructions.

Nc1ncnc2c1ncn2C1CCCO1 (stereo not drawn) [SQ 22,536, 9-(Tetrahydro-2-furanyl)-9H-purin-6-amine]
effect on the inhibition of the zymosan-induced respiratory burst by sporozoites (Kupffer cells [1]; 100 μM SQ 22,536 with P. yoelii sporozoites): abrogated the inhibitory effect

CO[C@@H]1[C@@H]2OP(=O)(O)OC[C@H]2O[C@H]1n1c(Sc2ccc(Cl)cc2)nc2c(N)ncnc21 [8-CPT-2-Me-cAMP, 8-[4-chlorophenylthio]-2′-O-methyladenosine-3′,5′-cAMP]
effect on zymosan-induced ROS formation (Kupffer cells [1]): inhibited

CC(C)Cn1c(=O)n(C)c(=O)c2[nH]cnc21 [IBMX, 3-isobutyl-1 methylxanthine, reference compound]
effect on the CSP-induced generation of cAMP (Kupffer cells [2]; added 10 min before 50 nM CSP (30 min), RAP 500 nM): did not reduce | inhibition at 1000 µM (Kupffer cells [1]; Rattus norvegicus, read-out: inhibition of the zymosan-induced respiratory burst): 67%

[O-][Cl+2]([O-])O [Chlorate, sodium chlorate, reference compound]
inhibition at 20000 µM (Kupffer cells [2]; Rattus norvegicus, read-out: inhibition of the CSP-induced generation of cAMP): 20%

C[C@]12N[C@H](Cc3ccccc31)c1ccccc12 [MK-801]
effect on the CSP-mediated inhibition of the respiratory burst (Kupffer cells [1]): had no effect

CCCC(=O)Nc1ncnc2c1ncn2[C@@H]1O[C@@H]2COP(=O)(O)O[C@H]2[C@H]1O [6-MB-cAMP, N6-monobutyryladenosine-3′,5′-cAMP]
effect on zymosan-induced ROS formation (Kupffer cells [1]; 3 mM, pretreated 40 minutes, luminol-enhanced chemiluminescence): had no effect

Cl.Cl.O=S(=O)(NCCNCC=Cc1ccc(Br)cc1)c1cccc2cnccc12 [H-89, N-[2-(p-Bromocinnamylamino)ethyl]-5-isoquinolinesulfonamide dihydrochloride]
effect on the CSP-mediated inhibition of the respiratory burst (Kupffer cells [1]): failed to prevent

CCCC(=O)Nc1ncnc2c1ncn2[C@@H]1O[C@@H]2COP(=O)(O)O[C@H]2[C@H]1OC(=O)CCC [db-cAMP, dibutyryl cAMP]
inhibition of the zymosan-induced respiratory burst (Kupffer cells [1]; 1 mM IBMX or 1 mM db-cAMP, luminol-enhanced chemiluminescence): 22%

From US8865657B2, “Compositions and methods for inactivating or suppressing inflammatory cells” (New York University, priority 2005, dated 2014)
